Measured values reported in US6664251B2, “Benzothiazine derivative” (Daiichi Suntory Pharma Co., Ltd., priority 1993, dated 2003).

What was measured:
serotonin-2 receptor = assay: Anti-serotonin action (anti-5-HT action): contraction of isolated superior mesenteric artery induced by serotonin; settings: contraction induced by 10^−5 M serotonin (5-HT) taken as 100%, Hartley male guinea pig superior mesenteric artery; for Anti 5-HT action (% of Control) 10^−6 M: test drug 10^−6 M; for Anti 5-HT action (% of Control) 10^−7 M: test drug 10^−7 M
Experimental: (1) Anti-Serotonin Action (Anti-5-HT Action)
A preparation cut in a helical form was suspended under 0.3 g load in a Magnus cylinder filled with the Tyrode solution which had been aerated with a gas mixture of 95% O2+5% CO2 and maintained at 37° C. Using an isometric transducer (“UL-10”, manufactured by SHINKOH K.K.) and a pressure preamplifier (“DSA-605A”, manufactured by SHINKOH K.K.), variations in tension were measured. The isometric tensions were recorded on a pen-writing recorder (“VP-6537A”, manufactured by NATIONAL K.K.). Taking the contraction induced by 10^−5 M serotonin (5-HT) as 100%, the percent contractions in the presence of each test drug at 10^−7 and 10^−6 M were determined as anti-5-HT action.

α1 receptor = assay: Anti-α1 action: tonic contraction of isolated thoracic aorta induced by norepinephrine; settings: tonic contraction induced by 10^−5 M norepinephrine (NE) taken as 100%, Hartley male guinea pig thoracic aorta; for Anti α1 action (% of Control) 10^−7 M: test drug 10^−7 M; for Anti α1 action (% of Control) 10^−8 M: test drug 10^−8 M
Experimental: The thoracic aorta of each Hartley male guinea pig (body weight: 300-500 g) was excised. A preparation cut in a helical form was suspended under 1 g load in a Magnus cylinder filled with the Tyrode solution which had been aerated with a gas mixture of 95% O2+5% CO2 and maintained at 37° C. Using an isometric transducer (“TB-612J”, manufactured by NIHON KOHDEN) and a pressure preamplifier (“AP-620G”, manufactured by NIHON KOHDEN), variations in tension were measured. The isometric tensions were recorded on a thermal pen-writing recorder (“WT-647G”, manufactured by NIHON KOHDEN).
Taking the tonic contraction induced by 10^−5 M norepinephrine (NE) as 100%, the percent contractions upon addition of each test drug at 10^−8 and 10^−7 M were determined as anti-α1 action.

| SMILES | Anti 5-HT action (% of Control) 10^−6 M (serotonin-2 receptor) | Anti 5-HT action (% of Control) 10^−7 M (serotonin-2 receptor) | Anti α1 action (% of Control) 10^−7 M (α1 receptor) | Anti α1 action (% of Control) 10^−8 M (α1 receptor) |
| --- | --- | --- | --- | --- |
| COc1ccc2c(c1)C1(CN(CCCN3CCC(C(=O)c4ccc(F)cc4)CC3)S2(=O)=O)OCCO1 [Compound No. 116, 2-[3-[4-(4-fluorobenzoyl)piperidino]-propyl]-6-methoxy-3,4-dihydro-2H-1,2-benzothiazin-4-one 1,1-dioxide ethylene acetal] | 13.9 % of Control | 40.2 % of Control | 88.3 % of Control | 100.7 % of Control |
| COc1cccc2c1C1(CN(CCCN3CCN(c4ccc(F)cc4)CC3)S2(=O)=O)OCCO1 [Compound No. 110, 2-[3-[4-(4-fluorophenyl)piperazin-1-yl]propyl]-5-methoxy-3,4-dihydro-2H-1,2-benzothiazin-4-one 1,1-dioxide ethylene acetal] | – | 5.6 % of Control | 81.1 % of Control | 100 % of Control |
| O=S1(=O)c2ccccc2C2(CN1CCCN1CCN(c3ccc(F)cc3)CC1)OCCO2 [Compound No. 62, 2-[3-[4-(4-fluorophenyl)piperazin-1-yl]propyl]-3,4-dihydro-2H-1,2-benzothiazin-4-one 1,1-dioxide ethylene acetal] | 3.3 % of Control | 14.1 % of Control | 53.1 % of Control | 98.1 % of Control |
| O=S1(=O)c2ccccc2C2(CN1CCCN1CCN(c3ccccc3F)CC1)OCCO2 [compound 35, 2-[3-[4-(2-fluorophenyl)piperazin-1-yl]propyl]-3,4-dihydro-2H-1,2-benzothiazin-4-one 1,1-dioxide ethylene acetal] | 7.5 % of Control | 38.3 % of Control | 89.3 % of Control | 99.0 % of Control |
| O=C(c1ccc(F)cc1)C1CCN(CCCN2CC3(OCCO3)c3ccccc3S2(=O)=O)CC1 [Compound No. 40, 2-[3-[4-(4-fluorobenzoyl)piperidino]-propyl]-3,4-dihydro-2H-1,2-benzothiazine-4-spiro-2′-(1′,3′-dioxolan) 1,1-dioxide] | 13.4 % of Control | 37.4 % of Control | 73.2 % of Control | 98.3 % of Control |
| O=S1(=O)c2ccc(Cl)cc2C2(CN1CCCN1CCN(c3ccc(F)cc3)CC1)OCCO2 [Compound No. 117, 6-chloro-2-[3-[4-(4-fluorophenyl)piperazin-1-yl]propyl]-3,4-dihydro-2H-1,2-benzothiazin-4-one 1,1-dioxide ethylene acetal] | 23.6 % of Control | 48.0 % of Control | 80.2 % of Control | 97.1 % of Control |
| O=S1(=O)c2ccccc2C2(CN1CCCN1CCN(c3ccc(O)cc3)CC1)OCCO2 [Compound No. 37, 2-[3-[4-(4-hydroxyphenyl)piperazin-1-yl]propyl]-3,4-dihydro-2H-1,2-benzothiazin-4-one 1,1-dioxide ethylene acetal] | 8.3 % of Control | 15.7 % of Control | 96.2 % of Control | 100 % of Control |
| COc1ccc2c(c1)S(=O)(=O)N(CCCN1CCC(C(=O)c3ccc(F)cc3)CC1)CC21OCCO1 [Compound No. 120, 2-[3-[4-(4-fluorobenzoyl)piperidino]propyl]-7-methoxy-3,4-dihydro-2H-1,2-benzothiazin-4-one 1,1-dioxide ethylene acetal] | 20.3 % of Control | 51.6 % of Control | 71.6 % of Control | 93.2 % of Control |
| O=S1(=O)c2ccccc2C2(CN1CCCN1CCN(c3ccccn3)CC1)OCCO2 [Compound No. 46, 2-[3-[4-(2-pyridyl)piperazin-1-yl]-propyl]-3,4-dihydro-2H-1,2-benzothiazin-4-one 1,1-dioxide ethylene acetal] | 5.5 % of Control | 39.8 % of Control | 97.4 % of Control | 100 % of Control |
| O=S1(=O)c2ccccc2C2(CN1CCCN1CCN(c3ccc(F)cc3)CC1)OCCCO2 [Compound No. 64, 2-[3-[4-(4-fluorophenyl)piperazin-1-yl]propyl]-3,4-dihydro-2H-1,2-benzothiazine-4-spiro-2′-(1′,3′-dioxane) 1,1-dioxide] | 13.8 % of Control | 24.8 % of Control | 84.9 % of Control | 97.3 % of Control |
| O=S1(=O)c2ccccc2C(O)CN1CCCN1CCN(c2ccc(F)cc2)CC1 (centres unmarked) [Compound No. 77, 2-[3-[4-(4-fluorophenyl)piperazin-1-yl]propyl]-4-hydroxy-3,4-dihydro-2H-1,2-benzothiazine 1,1-dioxide] | 18.2 % of Control | 45.7 % of Control | 79.6 % of Control | 100 % of Control |
| O=C(c1ccc(F)cc1)C1CCN(CCCN2CC(O)c3ccccc3S2(=O)=O)CC1 (centres unmarked) [Compound No. 76, 2-[3-[4-(4-fluorobenzoyl)piperidino]-propyl]-4-hydroxy-3,4-dihydro-2H-1,2-benzothiazine 1,1-dioxide] | 21.7 % of Control | 53.9 % of Control | 88.2 % of Control | 100 % of Control |
| COc1ccc2c(c1)C1(CN(CCCN3CCN(c4ccc(F)cc4)CC3)S2(=O)=O)OCCO1 [Compound No. 115, 2-[3-[4-(4-fluorophenyl)piperazin-1-yl]propyl]-6-methoxy-3,4-dihydro-2H-1,2-benzothiazin-4-one 1,1-dioxide ethylene acetal] | 14.1 % of Control | 63.0 % of Control | 62.3 % of Control | 100.4 % of Control |
| O=S1(=O)c2cccc(Cl)c2C2(CN1CCCN1CCN(c3ccc(F)cc3)CC1)OCCO2 [Compound No. 113, 5-chloro-2-[3-[4-(4-fluorophenyl)piperazin-1-yl]propyl]-3,4-dihydro-2H-1,2-benzothiazin-4-one 1,1-dioxide ethylene acetal] | – | 49.5 % of Control | 89.3 % of Control | 98.3 % of Control |
| O=S1(=O)c2cccc(Cl)c2C2(CN1CCCN1CCN(c3ccc(O)cc3)CC1)OCCO2 [Compound No. 114, 5-chloro-2-[3-[4-(4-hydroxyphenyl)piperazin-1-yl]propyl]-3,4-dihydro-2H-1,2-benzothiazin-4-one 1,1-dioxide ethylene acetal] | – | 23.5 % of Control | 98.9 % of Control | 101.1 % of Control |
| COC1=CN(CCCN2CCN(c3ccc(F)cc3)CC2)S(=O)(=O)c2ccccc21 [Compound No. 56, 2-[3-[4-(4-fluorophenyl)piperazin-1-yl]propyl]-4-methoxy-2H-1,2-benzothiazine 1,1-dioxide] | 16.9 % of Control | 60.8 % of Control | 69.5 % of Control | 95.4 % of Control |
| COC1(OC)CN(CCCN2CCN(c3ccc(F)cc3)CC2)S(=O)(=O)c2ccccc21 [Compound No. 55, 2-[3-[4-(4-fluorophenyl)piperazin-1-yl]propyl]-4,4-dimethoxy-3,4-dihydro-2H-1,2-benzothiazine 1,1-dioxide] | 7.4 % of Control | 23.4 % of Control | 89.2 % of Control | 100 % of Control |
| COc1cccc2c1C1(CN(CCN3CCN(c4ccc(F)cc4)CC3)S2(=O)=O)OCCO1 [Compound No. 109, 2-[2-[4-(4-fluorophenyl)piperazin-1-yl]ethyl]-5-methoxy-3,4-dihydro-2H-1,2-benzothiazin-4-one 1,1-dioxide ethylene acetal] | – | 10.5 % of Control | 96.1 % of Control | 99.3 % of Control |
